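Cells were grown in 96-well plates and exposed to each compound for 48 hours at five concentrations; endpoints were interpolated linearly between bracketing concentrations, or set to the highest concentration if not reached. GI50 = concentration required for 50% inhibition of growth.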 Active and inactive are the calls of the source. Cut-off read from the data, not from the text of the source: active = GI50 up to about 1.1 µM and inactive = higher.
Experiments:
Assay in all cases: inhibition of tumour cell growth, NCI panel, 48 h
SF-539 = tested on: SF-539
UACC-257 = tested on: UACC-257
PC-3 = tested on: PC-3
K562 = tested on: K562
HCT-15 = tested on: HCT-15
MCF7 = tested on: MCF7
CCRF-CEM = tested on: CCRF-CEM
COLO 205 = tested on: COLO 205
MDA-MB-231 = tested on: MDA-MB-231
NCI-H23 = tested on: NCI-H23
SW-620 = tested on: SW-620
OVCAR-4 = tested on: OVCAR-4
Malme-3M = tested on: Malme-3M
HOP-92 = tested on: HOP-92
SNB-75 = tested on: SNB-75
786-0 = tested on: 786-0
SK-MEL-5 = tested on: SK-MEL-5
BT-549 = tested on: BT-549
HOP-62 = tested on: HOP-62
DU-145 = tested on: DU-145

| Compound | GI50 (SF-539) | GI50 (UACC-257) | GI50 (PC-3) | GI50 (K562) | GI50 (HCT-15) [µM] | GI50 (MCF7) | GI50 (CCRF-CEM) | GI50 (COLO 205) | GI50 (MDA-MB-231) | GI50 (NCI-H23) | GI50 (SW-620) | GI50 (OVCAR-4) | GI50 (Malme-3M) | GI50 (HOP-92) | GI50 (SNB-75) | GI50 (786-0) | GI50 (SK-MEL-5) | GI50 (BT-549) | GI50 (HOP-62) | GI50 (DU-145) |
| --- | --- | --- | --- | --- | --- | --- | --- | --- | --- | --- | --- | --- | --- | --- | --- | --- | --- | --- | --- | --- |
| COC(=O)CC1C=CC(C)(OC)OO1 (stereo not given) | > 100 µM (inactive) | > 100 µM (inactive) | > 100 µM (inactive) | 19.7 µM (inactive) | 39.4 | 53.1 µM (inactive) | 15.7 µM (inactive) | 55.7 µM (inactive) | > 100 µM (inactive) | > 100 µM (inactive) | 27.2 µM (inactive) | 97.9 µM (inactive) | 78.7 µM (inactive) | > 100 µM (inactive) | > 100 µM (inactive) | > 100 µM (inactive) | > 100 µM (inactive) | > 100 µM (inactive) | > 100 µM (inactive) | > 100 µM (inactive) |
| COc1ccc(N2C(=O)CC(=O)N(NC(=O)C(C)Oc3ccccc3C)C2=S)cc1 (stereo not given) | > 100 µM (inactive) | > 100 µM (inactive) | > 100 µM (inactive) | > 100 µM (inactive) | > 100 | > 100 µM (inactive) | > 100 µM (inactive) | > 100 µM (inactive) | > 100 µM (inactive) | > 100 µM (inactive) | > 100 µM (inactive) | > 100 µM (inactive) | > 100 µM (inactive) | > 100 µM (inactive) | > 100 µM (inactive) | > 100 µM (inactive) | > 100 µM (inactive) | > 100 µM (inactive) | > 100 µM (inactive) | > 100 µM (inactive) |
| N#CC1(C#N)NC(c2ccsc2)C(C#N)(C#N)NC1c1ccsc1 (stereo not given) | > 100 µM (inactive) | > 100 µM (inactive) | > 100 µM (inactive) | > 100 µM (inactive) | > 100 | > 100 µM (inactive) | 80.2 µM (inactive) | > 100 µM (inactive) | > 100 µM (inactive) | > 100 µM (inactive) | > 100 µM (inactive) | > 100 µM (inactive) | > 100 µM (inactive) | > 100 µM (inactive) | > 100 µM (inactive) | > 100 µM (inactive) | > 100 µM (inactive) | > 100 µM (inactive) | > 100 µM (inactive) | > 100 µM (inactive) |
| O=C(/C=C/c1ccc2c(c1)OCO2)NCc1ccco1 | 64.9 µM (inactive) | > 100 µM (inactive) | > 100 µM (inactive) | 82.6 µM (inactive) | > 100 | 39.7 µM (inactive) | > 100 µM (inactive) | > 100 µM (inactive) | > 100 µM (inactive) | > 100 µM (inactive) | > 100 µM (inactive) | 41.6 µM (inactive) | > 100 µM (inactive) | 92.5 µM (inactive) | 22.3 µM (inactive) | > 100 µM (inactive) | > 100 µM (inactive) | 25.9 µM (inactive) | > 100 µM (inactive) | > 100 µM (inactive) |
| Cc1nn(C(=O)c2ccccc2O)c2c1C(c1ccc([N+](=O)[O-])cc1)SC(=N)N2 (stereo not given) | 0.984 µM (active) | 3.21 µM (inactive) | > 9.53 µM (inactive) | 1.17 µM (inactive) | 5.14 | 3.72 µM (inactive) | 3.32 µM (inactive) | > 8.61 µM (inactive) | > 5.94 µM (inactive) | 2.79 µM (inactive) | 6.17 µM (inactive) | 3.56 µM (inactive) | 4.42 µM (inactive) | 1.55 µM (inactive) | 0.769 µM (active) | > 5.24 µM (inactive) | > 6.43 µM (inactive) | 7.8 µM (inactive) | 4.92 µM (inactive) | 3.64 µM (inactive) |
| Cc1cc(N2CCN(C)CC2)n2nc(-c3ccc(Cl)cc3)nc2n1 | 75 µM (inactive) | 77.6 µM (inactive) | > 100 µM (inactive) | 60.4 µM (inactive) | > 100 | > 100 µM (inactive) | 11.5 µM (inactive) | 81.7 µM (inactive) | > 100 µM (inactive) | > 100 µM (inactive) | > 100 µM (inactive) | > 100 µM (inactive) | > 100 µM (inactive) | > 100 µM (inactive) | 66.7 µM (inactive) | 50.7 µM (inactive) | 50.2 µM (inactive) | 99.1 µM (inactive) | > 100 µM (inactive) | > 100 µM (inactive) |
| CN1CC[C@@H](c2c(O)cc(O)c3c(=O)cc(-c4ccccc4Cl)oc23)[C@@H](O)C1 | 0.0343 µM (active) | 0.0552 µM (active) | 0.0385 µM (active) | 0.167 µM (active) | 0.0399 | 0.0239 µM (active) | 0.0468 µM (active) | 0.034 µM (active) | 0.0394 µM (active) | 0.0365 µM (active) | 0.0333 µM (active) | 0.0643 µM (active) | 0.124 µM (active) | 0.0556 µM (active) | 0.0251 µM (active) | 0.0414 µM (active) | 0.0248 µM (active) | 0.0395 µM (active) | 0.0324 µM (active) | 0.0411 µM (active) |
| O=c1cc(NNc2cccc3ccccc23)[nH]c(=O)[nH]1 | 15.6 µM (inactive) | 15.7 µM (inactive) | 13.8 µM (inactive) | 12.9 µM (inactive) | 12.4 | 1.69 µM (inactive) | 10.1 µM (inactive) | 17.3 µM (inactive) | 13.3 µM (inactive) | 15.3 µM (inactive) | 20 µM (inactive) | 17.2 µM (inactive) | 17.8 µM (inactive) | 17.4 µM (inactive) | 16.6 µM (inactive) | 6.12 µM (inactive) | 15.8 µM (inactive) | 16.4 µM (inactive) | 17 µM (inactive) | 15.3 µM (inactive) |
| COC(=O)C1=C(C(=O)OC)C2(c3ccccc3)c3ccccc3C(=O)C1N2C1CCCCC1 (stereo not given) | 69.3 µM (inactive) | 11.9 µM (inactive) | 10.6 µM (inactive) | 3.42 µM (inactive) | 48.2 | 37.7 µM (inactive) | 26.7 µM (inactive) | 16.8 µM (inactive) | > 32.4 µM (inactive) | > 52.5 µM (inactive) | 41.3 µM (inactive) | 58.2 µM (inactive) | 58.2 µM (inactive) | > 100 µM (inactive) | > 66.8 µM (inactive) | 47.4 µM (inactive) | 26.2 µM (inactive) | > 100 µM (inactive) | > 68.9 µM (inactive) | > 100 µM (inactive) |
| Cc1cccc(Br)[n+]1[O-] | > 100 µM (inactive) | > 100 µM (inactive) | > 100 µM (inactive) | > 100 µM (inactive) | > 100 | > 100 µM (inactive) | > 100 µM (inactive) | > 100 µM (inactive) | 91.6 µM (inactive) | > 100 µM (inactive) | > 100 µM (inactive) | > 100 µM (inactive) | > 100 µM (inactive) | > 100 µM (inactive) | > 100 µM (inactive) | > 100 µM (inactive) | > 100 µM (inactive) | > 100 µM (inactive) | > 100 µM (inactive) | > 100 µM (inactive) |
| CCN(CC)CCn1c(=O)c2ccccc2n2c3c(=O)n(C)c(=O)n(C)c3nc12 | 0.968 µM (active) | 3.46 µM (inactive) | 2.38 µM (inactive) | 2.21 µM (inactive) | 15.4 | 0.337 µM (active) | 0.547 µM (active) | 1.55 µM (inactive) | 5.14 µM (inactive) | 2.07 µM (inactive) | 1.22 µM (inactive) | 4.27 µM (inactive) | 2.07 µM (inactive) | 1.47 µM (inactive) | 1.64 µM (inactive) | 1.32 µM (inactive) | 1.17 µM (inactive) | 1.19 µM (inactive) | 0.718 µM (active) | 0.771 µM (active) |
| FC(F)(F)C1(c2ccccc2)SCc2nc3ccccc3n21 (stereo not given) | > 100 µM (inactive) | > 100 µM (inactive) | 83.6 µM (inactive) | 43.7 µM (inactive) | 78.7 | > 100 µM (inactive) | 88.1 µM (inactive) | > 100 µM (inactive) | > 100 µM (inactive) | 71.9 µM (inactive) | > 100 µM (inactive) | > 100 µM (inactive) | > 100 µM (inactive) | 47.2 µM (inactive) | 88.1 µM (inactive) | > 100 µM (inactive) | 66.1 µM (inactive) | > 100 µM (inactive) | > 100 µM (inactive) | > 100 µM (inactive) |

Source: ChEMBL document CHEMBL1201862, “PubChem BioAssay data set” (2004)
